# Measured values from US20240425490A1, “SULFAMIDE RIBONUCLEOTIDE REDUCTASE (RNR) INHIBITORS AND USES THEREOF” (Boundless Bio, Inc., priority 2021, published 2024).
# Target: T1, RNR (RNR1:RNR2 1:1) (Homo sapiens, UniProt P23921)
# T1 sequence (P23921 1-792): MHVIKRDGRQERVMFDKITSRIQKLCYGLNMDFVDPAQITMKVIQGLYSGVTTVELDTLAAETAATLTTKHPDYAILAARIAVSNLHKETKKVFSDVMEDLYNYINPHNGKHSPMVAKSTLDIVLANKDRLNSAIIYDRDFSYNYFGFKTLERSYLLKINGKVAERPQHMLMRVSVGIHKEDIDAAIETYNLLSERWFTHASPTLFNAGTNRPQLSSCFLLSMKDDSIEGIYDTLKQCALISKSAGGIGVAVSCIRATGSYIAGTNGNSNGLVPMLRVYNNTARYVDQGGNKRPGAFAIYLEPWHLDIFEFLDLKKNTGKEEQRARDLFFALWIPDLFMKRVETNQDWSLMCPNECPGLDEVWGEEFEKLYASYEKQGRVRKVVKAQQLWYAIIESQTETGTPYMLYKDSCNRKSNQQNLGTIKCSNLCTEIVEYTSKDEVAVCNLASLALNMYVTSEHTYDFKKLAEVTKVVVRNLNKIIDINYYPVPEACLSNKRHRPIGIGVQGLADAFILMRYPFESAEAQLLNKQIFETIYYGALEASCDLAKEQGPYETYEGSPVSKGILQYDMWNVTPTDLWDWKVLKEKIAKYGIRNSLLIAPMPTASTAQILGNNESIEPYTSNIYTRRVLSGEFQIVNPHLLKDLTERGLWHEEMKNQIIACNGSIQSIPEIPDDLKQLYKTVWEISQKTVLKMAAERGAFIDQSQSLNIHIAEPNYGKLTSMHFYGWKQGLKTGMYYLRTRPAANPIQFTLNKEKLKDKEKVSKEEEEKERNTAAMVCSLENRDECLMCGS
# Test: RNR enzyme activity, rapid-fire mass spectrometry (RFMS) assay
# Assay type: biochemical
# Settings: RNR 50 nM, CDP 5 μM, ATP 1 mM, 37° C., 45 min, compounds screened up to 50 μM, read-out: RF/MS IC50
# Experimental: A rapid-fire mass spectrometry (RFMS) assay was used to assess RNR enzyme activity using a 384 well plate and a robotic platform.
# The plate layout included two validated reference compounds (Triapine (3-AP) and Hydroxyurea (HU)): • A dose response in duplicate; top concentration: 5 μM (3-AP) and 250 μM (HU), semi-log dilutions. • Spike wells in triplicate randomly spotted at four concentrations: • 250 μM, 100 μM, 30 μM and 2 μM for HU • 5 μM, 2 μM, 0.6 μM and 0.04 μM for 3-AP
# First, the multidrop pipes were saturated for 30 minutes with enzymatic solution. Then 30 μL of Stop solution was distributed in column 24. Next, 15 μL of enzyme was distributed in column 1 to 24. Next, a pre-incubation step of 15 minutes at room temperature occurred, followed by distribution of 15 μL of substrate solution (column 1 to 24). Next, the plate was incubated for 45 minutes at 37° C. 30 μL of Stop solution was distributed to columns 1 to 23.
# The final parameters for the enzyme reactions were: • Incubation: 37° C., 45 min • [CDP]: 5 μM; [ATP]: 1 mM; [NADPH]: No • [RNR] final: 50 nM with 1:1 (RNR1:RNR2) ratio • Final volume: 30 μL • Stop solution: 6% HCOOH containing 2 μM of 15
row,Compound,IC50 [µM]
1,"4-(3-azabicyclo[3.1.0]hexan-3-yl)-N-((1S,2R)-2-(6-fluoro-2,3-dimethylphenyl)-1-(5-oxo-4,5-dihydro-1,3,4-oxadiazol-2-yl)propyl)piperidine-1-sulfonamide [Example 105]",1 to 10
2,"Cc1ccc(F)c([C@@H](C)[C@H](NS(=O)(=O)N2CCC(F)(F)CC2)c2n[nH]c(=O)o2)c1C [Example 1, 4,4-difluoro-N-((1S,2R)-2-(6-fluoro-2,3-dimethylphenyl)-1-(5-oxo-4,5-dihydro-1,3,4-oxadiazol-2-yl)propyl)piperidine-1-sulfonamide]",0.1 to 1
3,"Cc1ccc(F)c([C@H](C)[C@H](NS(=O)(=O)N2CCC(F)(F)CC2)c2n[nH]c(=O)o2)c1C [Example 2, 4,4-difluoro-N-[(1S,2S)-2-(6-fluoro-2,3-dimethylphenyl)-1-(5-oxo-4H-1,3,4-oxadiazol-2-yl)propyl]piperidine-1-sulfonamide]",10 to 100
4,"Cc1ccc(F)c(C(C)[C@H](NS(=O)(=O)N2CCCCC2C#N)c2n[nH]c(=O)o2)c1C (stereo partly drawn) [Example 3, 2-cyano-N-[(1S)-2-(6-fluoro-2,3-dimethylphenyl)-1-(5-oxo-4H-1,3,4-oxadiazol-2-yl)propyl]piperidine-1-sulfonamide]",1 to 10
5,"Cc1ccc(F)c([C@@H](C)[C@H](NS(=O)(=O)N2CC3CCCC(C3)C2)c2n[nH]c(=O)o2)c1C [Example 7, N-((1S,2R)-2-(6-fluoro-2,3-dimethylphenyl)-1-(5-oxo-4,5-dihydro-1,3,4-oxadiazol-2-yl)propyl)-3-azabicyclo[3.3.1]nonane-3-sulfonamide]",10 to 100
6,"Cc1ccc(F)c([C@@H](C)[C@H](NS(=O)(=O)N2CCC(C)CC2C)c2n[nH]c(=O)o2)c1C (stereo partly drawn) [Example 8, N-((1S,2R)-2-(6-fluoro-2,3-dimethylphenyl)-1-(5-oxo-4,5-dihydro-1,3,4-oxadiazol-2-yl)propyl)-2,4-dimethylpiperidine-1-sulfonamide]",1 to 10
7,"Cc1ccc(F)c([C@@H](C)[C@H](NS(=O)(=O)N2CCC(C3CCCCC3)CC2)c2n[nH]c(=O)o2)c1C [Example 9, 4-cyclohexyl-N-((1S,2R)-2-(6-fluoro-2,3-dimethylphenyl)-1-(5-oxo-4,5-dihydro-1,3,4-oxadiazol-2-yl)propyl)piperidine-1-sulfonamide]",10 to 100
8,"Cc1ccc(F)c([C@H](C)[C@H](NS(=O)(=O)N2CCC(C3CCCCC3)CC2)c2n[nH]c(=O)o2)c1C [Example 10, 4-cyclohexyl-N-((1S,2S)-2-(6-fluoro-2,3-dimethylphenyl)-1-(5-oxo-4,5-dihydro-1,3,4-oxadiazol-2-yl)propyl)piperidine-1-sulfonamide]",10 to 100
9,"Cc1ccc(F)c([C@@H](C)[C@H](NS(=O)(=O)N2CCCC[C@@H]2C(N)=O)c2n[nH]c(=O)o2)c1C [Example 12, (R)-1-(N-((1S,2R)-2-(6-fluoro-2,3-dimethylphenyl)-1-(5-oxo-4,5-dihydro-1,3,4-oxadiazol-2-yl)propyl)sulfamoyl)piperidine-2-carboxamide]",1 to 10
10,"Cc1ccc(F)c([C@@H](C)[C@H](NS(=O)(=O)N2CCCCC2C(=O)O)c2n[nH]c(=O)o2)c1C (stereo partly drawn) [Example 13, 1-(N-((1S,2R)-2-(6-fluoro-2,3-dimethylphenyl)-1-(5-oxo-4,5-dihydro-1,3,4-oxadiazol-2-yl)propyl)sulfamoyl)piperidine-2-carboxylic acid]",10 to 100
11,"Cc1ccc(F)c([C@H](C)[C@H](NS(=O)(=O)N2CCCCC2C(=O)O)c2n[nH]c(=O)o2)c1C (stereo partly drawn) [Example 14, 1-(N-((1S,2S)-2-(6-fluoro-2,3-dimethylphenyl)-1-(5-oxo-4,5-dihydro-1,3,4-oxadiazol-2-yl)propyl)sulfamoyl)piperidine-2-carboxylic acid]",10 to 100
12,"Cc1ccc(F)c([C@@H](C)[C@H](NS(=O)(=O)N2CCCCC2CC(N)=O)c2n[nH]c(=O)o2)c1C (stereo partly drawn) [Example 15, 2-(1-(N-((1S,2R)-2-(6-fluoro-2,3-dimethylphenyl)-1-(5-oxo-4,5-dihydro-1,3,4-oxadiazol-2-yl)propyl)sulfamoyl)piperidin-2-yl)acetamide]",0.1 to 1
13,"Cc1ccc(F)c([C@H](C)[C@H](NS(=O)(=O)N2CCCCC2CC(N)=O)c2n[nH]c(=O)o2)c1C (stereo partly drawn) [Example 16, 2-(1-(N-((1S,2S)-2-(6-fluoro-2,3-dimethylphenyl)-1-(5-oxo-4,5-dihydro-1,3,4-oxadiazol-2-yl)propyl)sulfamoyl)piperidin-2-yl)acetamide]",1 to 10
14,"CC(=O)[C@@H]1CCCCN1S(=O)(=O)N[C@H](c1n[nH]c(=O)o1)[C@H](C)c1c(F)ccc(C)c1C [Example 17, (S)-2-acetyl-N-((1S,2R)-2-(6-fluoro-2,3-dimethylphenyl)-1-(5-oxo-4,5-dihydro-1,3,4-oxadiazol-2-yl)propyl)piperidine-1-sulfonamide]",10 to 100

# Continued, values first:
row,IC50 [µM],Compound
1,0.1 to 1,"Cc1ccc(F)c([C@@H](C)[C@H](NS(=O)(=O)N2CCCC(C(C)O)C2)c2n[nH]c(=O)o2)c1C (mixture of isomers) [Example 27, rac-N-((1R,2S)-2-(6-fluoro-2,3-dimethylphenyl)-1-(5-oxo-4,5-dihydro-1,3,4-oxadiazol-2-yl)propyl)-3-(1-hydroxyethyl)piperidine-1-sulfonamide]"
2,10 to 100,"Cc1ccc(F)c([C@H](C)[C@H](NS(=O)(=O)N2CCCC(C(C)O)C2)c2n[nH]c(=O)o2)c1C (mixture of isomers) [Example 28, rac-N-((1R,2R)-2-(6-fluoro-2,3-dimethylphenyl)-1-(5-oxo-4,5-dihydro-1,3,4-oxadiazol-2-yl)propyl)-3-(1-hydroxyethyl)piperidine-1-sulfonamide]"
3,0.1 to 1,"Cc1ccc(F)c([C@@H](C)[C@H](NS(=O)(=O)N2C[C@H]3CCC[C@H]3C2)c2n[nH]c(=O)o2)c1C [Example 4, (3aR,6aS)-N-((1S,2R)-2-(6-Fluoro-2,3-dimethylphenyl)-1-(5-oxo-4,5-dihydro-1,3,4-oxadiazol-2-yl)propyl)hexahydrocyclopenta[c]pyrrole-2(1H)-sulfonamide]"
4,0.1 to 1,"Cc1ccc(F)c([C@@H](C)[C@H](NS(=O)(=O)N2CCC(Cl)CC2)c2n[nH]c(=O)o2)c1C [Example 5, 4-chloro-N-((1S,2R)-2-(6-fluoro-2,3-dimethylphenyl)-1-(5-oxo-4,5-dihydro-1,3,4-oxadiazol-2-yl)propyl)piperidine-1-sulfonamide]"
5,1 to 10,"Cc1ccc(F)c([C@H](C)[C@H](NS(=O)(=O)N2CCC(Cl)CC2)c2n[nH]c(=O)o2)c1C [Example 6, 4-chloro-N-((1S,2S)-2-(6-fluoro-2,3-dimethylphenyl)-1-(5-oxo-4,5-dihydro-1,3,4-oxadiazol-2-yl)propyl)piperidine-1-sulfonamide]"
6,1 to 10,"CC(=O)[C@@H]1CCCCN1S(=O)(=O)N[C@H](c1n[nH]c(=O)o1)[C@@H](C)c1c(F)ccc(C)c1C [Example 18, (S)-2-acetyl-N-((1S,2S)-2-(6-fluoro-2,3-dimethylphenyl)-1-(5-oxo-4,5-dihydro-1,3,4-oxadiazol-2-yl)propyl)piperidine-1-sulfonamide]"
7,1 to 10,"CC(=O)[C@H]1CCCCN1S(=O)(=O)N[C@H](c1n[nH]c(=O)o1)[C@H](C)c1c(F)ccc(C)c1C [Example 19, (R)-2-acetyl-N-((1S,2R)-2-(6-fluoro-2,3-dimethylphenyl)-1-(5-oxo-4,5-dihydro-1,3,4-oxadiazol-2-yl)propyl)piperidine-1-sulfonamide]"
8,1 to 10,"Cc1ccc(F)c([C@@H](C)[C@H](NS(=O)(=O)N2CCC[C@](C)(O)C2)c2n[nH]c(=O)o2)c1C [Example 20, (S)-N-((1S,2R)-2-(6-fluoro-2,3-dimethylphenyl)-1-(5-oxo-4,5-dihydro-1,3,4-oxadiazol-2-yl)propyl)-3-hydroxy-3-methylpiperidine-1-sulfonamide]"
9,1 to 10,"Cc1ccc(F)c([C@H](C)[C@H](NS(=O)(=O)N2CCC[C@](C)(O)C2)c2n[nH]c(=O)o2)c1C [Example 21, (S)-N-((1S,2S)-2-(6-fluoro-2,3-dimethylphenyl)-1-(5-oxo-4,5-dihydro-1,3,4-oxadiazol-2-yl)propyl)-3-hydroxy-3-methylpiperidine-1-sulfonamide]"
